{"source": "ChEMBL document CHEMBL1159021", "about": "“Antitumor agents, 127. Bruceoside C, a new cytotoxic quassinoid glucoside, and related compounds from Brucea javanica” (1992)", "format_in_all_cases": "functional", "details_in_all_cases": "read-out: ED50 (the source's name)", "key": {"[1]": {"test": "Cytotoxicity against human RPMI cells"}, "TE-671": {"system": "TE-671", "test": "Cytotoxicity against human TE671 cells"}, "HCT-8": {"system": "HCT-8", "test": "Cytotoxicity against human HCT8 cells"}, "A549": {"system": "A549", "test": "Cytotoxicity against human A549 cells"}, "P388": {"system": "P388", "test": "Cytotoxicity against mouse P388 cells"}, "KB": {"system": "KB", "test": "Cytotoxicity against human KB cells"}}, "data": [{"smiles": "COC(=O)[C@@]12OC[C@]34[C@H](OC(=O)C[C@@H]13)[C@H](OC(=O)C=C(C)C)[C@H]1C(C)=C(O[C@@H]3O[C@H](CO)[C@@H](O)[C@H](O)[C@H]3O)C(=O)C[C@]1(C)[C@H]4[C@@H](O)[C@@H]2O", "note": "[BRUCEOSIDE C]", "values": [{"measurement": "EC50", "setting": "[1]", "result": "< 0.1", "unit": "µg/mL"}, {"measurement": "EC50", "setting": "TE-671", "result": 0.29, "unit": "µg/mL"}, {"measurement": "EC50", "setting": "HCT-8", "result": 4.51, "unit": "µg/mL"}, {"measurement": "EC50", "setting": "A549", "result": 0.44, "unit": "µg/mL"}, {"measurement": "EC50", "setting": "P388", "result": 5.11, "unit": "µg/mL"}, {"measurement": "EC50", "setting": "KB", "result": "< 0.1", "unit": "µg/mL"}]}]}
